Source: patent publication EP4610269A1, “UROKINASE PLASMINOGEN ACTIVATOR SURFACE RECEPTOR (UPAR) LIGANDS FOR DIAGNOSTIC OR THERAPEUTIC USE” (3B Pharmaceuticals GmbH, priority 2024, dated 2025)
*1 amine or outer side, *2 acyl side, *3 side chain or, on linkers, in order; H or OH if unused. Where a SMILES comes first, the peptide text is derived from it. Bridges are numbered along the chain shown (N, C = ends). [ ]: non-standard residue; d: D form. The star is where a group is joined. DOTA = O=C(O)CN1CCN(CC(=O)O)CCN(CC(=O)*)CCN(CC(=O)O)CC1; X8 = O=C(CN(CC(=O)NC(CO)(CO)CO)CC(=O)*)NC(CO)(CO)CO; Pro(trans-4-F) = O=C(O)[C@@H]1C[C@@H](F)CN1; Phe(3-Cl) = N[C@@H](Cc1cccc(Cl)c1)C(=O)O; Pro(cis-4-F) = O=C(O)[C@@H]1C[C@H](F)CN1; Phe(2-Cl) = N[C@@H](Cc1ccccc1Cl)C(=O)O; Hyp = O=C(O)[C@@H]1C[C@@H](O)CN1; 4Pal = N[C@@H](Cc1ccncc1)C(=O)O; Pentanoyl(4-Me) = CC(C)CCC(=O)*; Cit = NC(=O)NCCC[C@H](N)C(=O)O; Butoxycarbonyl = CCCCOC(=O)*; Chg = N[C@H](C(=O)O)C1CCCCC1; Pen = CC(C)(S)[C@H](N)C(=O)O; Pip = O=C(O)[C@@H]1CCCCN1; Nle = CCCC[C@H](N)C(=O)O; Orn = NCCC[C@H](N)C(=O)O; Api = NC1(C(=O)O)CCNCC1; Dab = NCC[C@H](N)C(=O)O; Nva = CCC[C@H](N)C(=O)O; Pentanoyl = CCCCC(=O)*; CH2 = C([*:1])[*:2]

Legend:
[1] = biological target: T1, uPAR-expressing HEC-265 human endometrial adenocarcinoma cells (Homo sapiens, UniProt Q03405); test: Competitive FACS binding assay; conditions: pIC50 category of FACS binding
T1 construct: Cell surface uPAR-expressing HEC-265 human endometrial adenocarcinoma cells; host or cells: HEC-265
T1 sequence (Q03405 23-335): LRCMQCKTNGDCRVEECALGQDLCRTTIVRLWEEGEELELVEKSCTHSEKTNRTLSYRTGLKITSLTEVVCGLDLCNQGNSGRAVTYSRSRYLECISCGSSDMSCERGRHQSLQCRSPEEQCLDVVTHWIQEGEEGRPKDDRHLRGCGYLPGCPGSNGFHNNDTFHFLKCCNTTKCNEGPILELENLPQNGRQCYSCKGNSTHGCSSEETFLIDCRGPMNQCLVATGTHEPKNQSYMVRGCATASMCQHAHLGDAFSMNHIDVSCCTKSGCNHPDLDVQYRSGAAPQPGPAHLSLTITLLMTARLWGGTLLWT
Procedure, shortened: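 HEC-265 cells incubated 1 h at 4 °C with 10 nM biotinylated uPAR peptide tracer plus increasing test compound, then stained with APC-streptavidin on ice. Median APC fluorescence by flow cytometry; 4PL fit gives pIC50.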

human uPAR (uPAR-Fc) = biological target: T2, human uPAR (uPAR-Fc) (Homo sapiens, UniProt Q03405); test: Surface plasmon resonance (SPR) assay, single cycle kinetics; assay type: binding; conditions: pKD category for uPAR SPR activity assay; uPAR-Fc on Protein A-Chip, 25°C; read-out: pKD CAT (converted)
T2 construct: comprising amino acids Leu23-Arg303 according to UniProt entry Q03405.1; purchased R&D Systems 10378-UK-100
T2 sequence (Q03405 23-303): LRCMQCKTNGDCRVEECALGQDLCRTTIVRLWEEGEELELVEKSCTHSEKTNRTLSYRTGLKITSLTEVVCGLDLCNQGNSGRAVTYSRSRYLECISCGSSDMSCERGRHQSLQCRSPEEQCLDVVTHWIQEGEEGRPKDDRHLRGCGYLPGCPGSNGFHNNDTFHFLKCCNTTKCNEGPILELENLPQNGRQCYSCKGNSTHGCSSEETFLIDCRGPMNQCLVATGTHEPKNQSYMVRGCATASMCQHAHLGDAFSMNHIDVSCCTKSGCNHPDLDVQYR
Procedure, shortened: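 uPAR-Fc (Leu23-Arg303 extracellular domains, human IgG1 Fc) captured on Protein A chip to ~2000 RU; single-cycle kinetics at 25°C in HEPES running buffer pH 7.4 with 0.1% DMSO. KD from double-referenced sensorgrams fitted to 1:1 Langmuir model, reported as pKD.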

Row | Compound | IC50 [1] [µM] | Kd (human uPAR (uPAR-Fc)) [µM]
1 | CCCCC(=O)N[C@H]1CSCSC[C@@H](C(N)=O)NC(=O)[C@H](CCC)NC(=O)[C@H]([C@@H](C)CC)NC(=O)[C@@H]2C[C@@H](O)CN2C(=O)[C@@H]2CCCN2C(=O)[C@H](Cc2ccccc2)NC(=O)[C@H](Cc2ccc(O)cc2)NC(=O)[C@H](CCC(N)=O)NC(=O)[C@H](CCCNC(N)=O)NC1=O [UPAR-215, Pent-[Smc-Cit-Gln-Tyr-Phe-Pro-Hyp-Ile-Nva-Cys]-NH2] (Pentanoyl-C[Cit]QYFP[Hyp]I[Nva]C-NH2; linker 1-10 via CH2) | 0.0126 to 0.0316 | 0.00158 to 0.01
2 | CCCCC(=O)N[C@H]1CSSC(C)(C)[C@@H](C(N)=O)NC(=O)[C@H](CCC)NC(=O)[C@H]([C@@H](C)CC)NC(=O)[C@@H]2C[C@@H](O)CN2C(=O)[C@@H]2CCCN2C(=O)[C@H](Cc2ccccc2)NC(=O)[C@H](Cc2ccc(O)cc2)NC(=O)[C@H](CCC(N)=O)NC(=O)[C@H](CCCNC(N)=O)NC1=O [UPAR-217, Pent-[Cys-Cit-Gln-Tyr-Phe-Pro-Hyp-Ile-Nva-Pen]-NH2] (Pentanoyl-C[Cit]QYFP[Hyp]I[Nva][Pen]-NH2; disulfide 1-10) | ≤ 0.01 | 0.00158 to 0.01
3 | CCCC[C@@H]1NC(=O)[C@H](CCCNC(=N)N)NC(=O)[C@@H](NC(=O)[C@H](CC(C)C)NC(=O)[C@H](CC(=O)O)NC(C)=O)CSSC[C@@H](C(N)=O)NC(=O)[C@H](CC(C)C)NC(=O)[C@H]([C@@H](C)CC)NC(=O)[C@H](C)NC(=O)[C@H]2CCCN2C(=O)[C@H](Cc2ccccc2)NC(=O)[C@H](Cc2ccc(O)cc2)NC1=O [UPAR-218, Ac-Asp-Leu-[Cys-Arg-Nle-Tyr-Phe-pro-Ala-Ile-Leu-Cys]-NH2] (Ac-DLCR[Nle]YF[dP]AILC-NH2; disulfide 3-12) | ≥ 0.126 | > 0.1
4 | CC[C@H](C)[C@@H]1NC(=O)C2(CCN(C(=O)CN3CCN(CC(=O)O)CCN(CC(=O)O)CCN(CC(=O)O)CC3)CC2)NC(=O)[C@@H]2CCCN2C(=O)[C@H](Cc2ccccc2)NC(=O)[C@H](Cc2ccc(O)cc2)NC(=O)[C@H](CCC(N)=O)NC(=O)[C@H](CCCNC(N)=O)NC(=O)[C@@H](NC(=O)CCC(C)C)CSSC[C@@H](C(N)=O)NC(=O)[C@H](CC(C)C)NC1=O [UPAR-219, iHex-[Cys-Cit-Gln-Tyr-Phe-Pro-Apc(DOTA)-Ile-Leu-Cys]-NH2] ({Pentanoyl(4-Me)}-C[Cit]QYFP[Api](DOTA)ILC-NH2; disulfide 1-10) | ≤ 0.01 | 0.00158 to 0.01
5 | CC[C@H](C)[C@@H]1NC(=O)[C@@H]2C[C@@H](F)CN2C(=O)[C@@H]2CCCN2C(=O)[C@H](Cc2ccccc2)NC(=O)[C@H](Cc2ccc(O)cc2)NC(=O)[C@H](CCC(N)=O)NC(=O)[C@H](CCCNC(N)=O)NC(=O)[C@@H](NC(=O)CCC(C)C)CSSC[C@@H](C(N)=O)NC(=O)[C@H](CC(C)C)NC1=O [UPAR-220, iHex-[Cys-Cit-Gln-Tyr-Phe-Pro-4Tfp-Ile-Leu-Cys]-NH2] ({Pentanoyl(4-Me)}-C[Cit]QYFP[Pro(trans-4-F)]ILC-NH2; disulfide 1-10) | ≤ 0.01 | < 0.00158
6 | CC[C@H](C)[C@@H]1NC(=O)[C@@H](C)NC(=O)[C@@H]2CCCN2C(=O)[C@H](Cc2ccccc2Cl)NC(=O)[C@H](Cc2ccc(O)cc2)NC(=O)[C@H](CCC(N)=O)NC(=O)[C@H](CCCNC(N)=O)NC(=O)[C@@H](NC(=O)CCC(C)C)CSSC[C@@H](C(N)=O)NC(=O)[C@H](CC(C)C)NC1=O [UPAR-221, iHex-[Cys-Cit-Gln-Tyr-Ocf-Pro-ala-Ile-Leu-Cys]-NH2] ({Pentanoyl(4-Me)}-C[Cit]QY[Phe(2-Cl)]P[dA]ILC-NH2; disulfide 1-10) | ≤ 0.01 | < 0.00158
7 | CCCCC(=O)N[C@H]1CSSC[C@@H](C(N)=O)NC(=O)[C@H](CCC)NC(=O)[C@H]([C@@H](C)CC)NC(=O)[C@@H]2C[C@@H](O)CN2C(=O)[C@@H]2CCCN2C(=O)[C@H](Cc2ccncc2)NC(=O)[C@H](Cc2ccc(O)cc2)NC(=O)[C@H](CCCCNC(=O)CN2CCN(CC(=O)O)CCN(CC(=O)O)CCN(CC(=O)O)CC2)NC(=O)[C@H](CCCNC(N)=O)NC1=O [UPAR-222, Pent-[Cys-Cit-Lys(DOTA)-Tyr-Ppa-Pro-Hyp-Ile-Nva-Cys]-NH2] (Pentanoyl-C[Cit]K(DOTA)Y[4Pal]P[Hyp]I[Nva]C-NH2; disulfide 1-10) | ≤ 0.01 | 0.00158 to 0.01
8 | CCC[C@@H]1NC(=O)[C@H]([C@@H](C)CC)NC(=O)[C@@H]2C[C@@H](O)CN2C(=O)[C@@H]2CCCN2C(=O)[C@H](Cc2ccccc2)NC(=O)[C@H](Cc2ccc(O)cc2)NC(=O)[C@H](CCC(N)=O)NC(=O)[C@H](CCCNC(=N)N)NC(=O)[C@@H](NC(=O)[C@H](Cc2ccccc2)NC(=O)CN2CCN(CC(=O)O)CCN(CC(=O)O)CCN(CC(=O)O)CC2)CSSC[C@@H](C(N)=O)NC1=O [UPAR-223, DOTA-Phe-[Cys-Arg-Gln-Tyr-Phe-Pro-Hyp-Ile-Nva-Cys]-NH2] ({DOTA}-FCRQYFP[Hyp]I[Nva]C-NH2; disulfide 2-11) | 0.0398 to 0.1 | 0.01 to 0.1
9 | CCCCC(=O)N[C@H]1CSSC[C@@H](C(N)=O)NC(=O)[C@H](CCC)NC(=O)[C@H]([C@@H](C)CC)NC(=O)[C@@H]2C[C@@H](O)CN2C(=O)[C@@H]2CCCN2C(=O)[C@H](Cc2ccccc2)NC(=O)[C@H](Cc2ccc(O)cc2)NC(=O)[C@H](CCCCNC(=O)CN2CCN(CC(=O)O)CCN(CC(=O)O)CCN(CC(=O)O)CC2)NC(=O)[C@H](CCCNC(=O)CN(CC(=O)NC(CO)(CO)CO)CC(=O)NC(CO)(CO)CO)NC1=O [UPAR-224, Pent-[Cys-Orn(Tris-Nta(Tris))-Lys(DOTA)-Tyr-Phe-Pro-Hyp-Ile-Nva-Cys]-NH2] (Pentanoyl-C[Orn](X8)K(DOTA)YFP[Hyp]I[Nva]C-NH2; disulfide 1-10) | ≤ 0.01 | < 0.00158
10 | CC(C)CCC(=O)N[C@H]1CSSC[C@@H](C(N)=O)NC(=O)[C@H](CC(C)C)NC(=O)[C@H](C2CCCCC2)NC(=O)[C@@H](C)NC(=O)[C@@H]2CCCN2C(=O)[C@H](Cc2ccccc2)NC(=O)[C@H](Cc2ccc(O)cc2)NC(=O)[C@H](CCC(N)=O)NC(=O)[C@H](CCCNC(N)=O)NC1=O [UPAR-225, iHex-[Cys-Cit-Gln-Tyr-Phe-Pro-ala-Chg-Leu-Cys]-NH2] ({Pentanoyl(4-Me)}-C[Cit]QYFP[dA][Chg]LC-NH2; disulfide 1-10) | ≤ 0.01 | < 0.00158
11 | CCCCC(=O)N[C@H]1CSSC[C@@H](C(N)=O)NC(=O)[C@H](CCC)NC(=O)[C@H]([C@@H](C)CC)NC(=O)[C@H](Cc2ccc(O)cc2)NC(=O)[C@@H]2CCCN2C(=O)[C@H](Cc2ccccc2)NC(=O)[C@H](Cc2ccc(O)cc2)NC(=O)[C@H](CCC(N)=O)NC(=O)[C@H](CCCNC(=N)N)NC1=O [UPAR-226, Pent-[Cys-Arg-Gln-Tyr-Phe-Pro-Tyr-Ile-Nva-Cys]-NH2] (Pentanoyl-CRQYFPYI[Nva]C-NH2; disulfide 1-10) | ≤ 0.01 | < 0.00158
12 | CC[C@H](C)[C@@H]1NC(=O)[C@@H](C)NC(=O)[C@@H]2CCCN2C(=O)[C@H](Cc2cccc(Cl)c2)NC(=O)[C@H](Cc2ccc(O)cc2)NC(=O)[C@H](CCC(N)=O)NC(=O)[C@H](CCCNC(N)=O)NC(=O)[C@@H](NC(=O)CCC(C)C)CSSC[C@@H](C(N)=O)NC(=O)[C@H](CC(C)C)NC1=O [UPAR-227, iHex-[Cys-Cit-Gln-Tyr-Mcf-Pro-ala-Ile-Leu-Cys]-NH2] ({Pentanoyl(4-Me)}-C[Cit]QY[Phe(3-Cl)]P[dA]ILC-NH2; disulfide 1-10) | ≤ 0.01 | < 0.00158
13 | CCCCOC(=O)N[C@H]1CSSC[C@@H](C(N)=O)NC(=O)[C@H](CCC)NC(=O)[C@H]([C@@H](C)CC)NC(=O)[C@@H]2C[C@@H](O)CN2C(=O)[C@@H]2C[C@H](F)CN2C(=O)[C@H](Cc2ccccc2)NC(=O)[C@H](Cc2ccc(O)cc2)NC(=O)[C@H](CCNC(=O)CN2CCN(CC(=O)O)CCN(CC(=O)O)CCN(CC(=O)O)CC2)NC(=O)[C@H]([C@@H](C)O)NC1=O [UPAR-228, Butoc-[Cys-Thr-Dab(DOTA)-Tyr-Phe-4Cfp-Hyp-Ile-Nva-Cys]-NH2] (Butoxycarbonyl-CT[Dab](DOTA)YF[Pro(cis-4-F)][Hyp]I[Nva]C-NH2; disulfide 1-10) | ≤ 0.01 | < 0.00158
14 | CCCC[C@@H]1NC(=O)[C@H](CCCNC(=N)N)NC(=O)[C@@H](NC(=O)[C@H](CC(C)C)NC(=O)[C@H](CC(=O)O)NC(C)=O)CSSC[C@@H](C(N)=O)NC(=O)[C@H](CC(C)C)NC(=O)[C@H]([C@@H](C)CC)NC(=O)[C@H](C)NC(=O)[C@@H]2CCCN2C(=O)[C@@H](Cc2ccccc2)NC(=O)[C@H](Cc2ccc(O)cc2)NC1=O [UPAR-230, Ac-Asp-Leu-[Cys-Arg-Nle-Tyr-phe-Pro-Ala-Ile-Leu-Cys]-NH2] (Ac-DLCR[Nle]Y[dF]PAILC-NH2; disulfide 3-12) | ≥ 0.126 | > 0.1
15 | CC[C@H](C)[C@@H]1NC(=O)[C@@H](C)NC(=O)[C@@H]2CCCN2C(=O)[C@H](Cc2ccccc2)NC(=O)[C@H](Cc2ccc(O)cc2)NC(=O)[C@H](CCC(N)=O)NC(=O)[C@@H](C)NC(=O)[C@@H](NC(=O)CCC(C)C)CSSC[C@@H](C(N)=O)NC(=O)[C@H](CC(C)C)NC1=O [UPAR-231, iHex-[Cys-ala-Gln-Tyr-Phe-Pro-ala-Ile-Leu-Cys]-NH2] ({Pentanoyl(4-Me)}-C[dA]QYFP[dA]ILC-NH2; disulfide 1-10) | 0.0398 to 0.1 | 0.01 to 0.1
16 | CC[C@H](C)[C@@H]1NC(=O)[C@@H](C)NC(=O)[C@@H]2CCCCN2C(=O)[C@H](Cc2ccccc2)NC(=O)[C@H](Cc2ccc(O)cc2)NC(=O)[C@H](CCC(N)=O)NC(=O)[C@H](CCCNC(N)=O)NC(=O)[C@@H](NC(=O)CCC(C)C)CSSC[C@@H](C(N)=O)NC(=O)[C@H](CC(C)C)NC1=O [UPAR-232, iHex-[Cys-Cit-Gln-Tyr-Phe-Pip-ala-Ile-Leu-Cys]-NH2] ({Pentanoyl(4-Me)}-C[Cit]QYF[Pip][dA]ILC-NH2; disulfide 1-10) | ≤ 0.01 | 0.00158 to 0.01
